Assay results reported in EP4023291A1, “FAT METABOLISM PROMOTER” (Asahi Group Holdings, Ltd., priority 2019, dated 2021).

How the values were obtained:
TRPA1 = molecular target: T1, TRPA1 (Homo sapiens, UniProt O75762); test: Test 5: TRPA1 activity test, calcium imaging in cells with forced expression of TRPA1; format: cell-based
T1 construct: expressed in transfected cells; host or cells: HEK293T cells, transient transfection with Lipofectamine 2000
Method: In the present test, the contribution of the lipid metabolism promoter of the present embodiment to TRPA1 activity was examined by checking the activation of the temperature-sensitive ion channel TRPA1 with a calcium imaging method. The specific testing method of the present test and the results of the test are shown in the following. […]
(§1) Ethyl caproate was added to HEPES buffer (10 mM HEPES, 130 mM NaCl, 5 mM KCl, 10 mM glucose, 2 mM CaCl2·2H2O, 1.2 mM MgCl2·6H2O, pH = 7.40), and thus a test solution of Example 9 containing ethyl caproate in a concentration of 255 ppm was obtained. […] Measurement of fluorescence intensity for the cells with forced expression of TRPA1 was initiated, and, 20 seconds thereafter, 50-µL portions of each of the test solutions prepared were added to three wells. After the lapse of a predetermined period of time, the measurement of fluorescence intensity was completed, and ratios of fluorescence intensity at each time after addition of a test solution as the average of fluorescence intensity before addition of a test solution was assumed as 1 (hereinafter, also referred to as "RFU (relative fluorescence units)") were determined from measurements of fluorescence intensity. Further, change rates in RFU before and after addition of a test solution (hereinafter, also referred to as "ΔRFU") were determined at each time after addition of a test solution. […]

[1] = tested on: HEK293T cells without transfer of the TRPA1 gene; test: Test 5: TRPA1 activity test, reference in non-transformed cells; format: cell-based, human; conditions: ethyl caproate 255 ppm test solution, 100 ppm in well
Method: In the present test, first, human embryonic HEK293T cells were first suspended in DMEM medium to which penicillin-streptomycin (manufactured by Thermo Fisher Scientific, Inc.) and fetal bovine serum (manufactured by Sigma-Aldrich Co. LLC) were added to reach concentrations of 100 Unit/mL, 100 µg/mL, and 10%, respectively, seeded in a 96-well plate at a volume of 100 µL/well, and cultured under conditions of 5% CO2 and 37°C until a cell density reached 70 to 90%.
as §1, with “intensity.” for “intensity. Further, change rates in RFU before and after addition of a test solution (hereinafter, also referred to as "ΔRFU") were determined at each time after addition of a test solution.”

3T3-L1 cells = test: Test 4: lipolysis test, glycerol released into culture supernatant of differentiated adipocytes; format: cell-based, Mouse; conditions: for amount of released glycerol, comparison with control: against Comparative Example 4 (0.1% ethanol), one-way ANOVA, Dunnett's test; for control ratio: amount of glycerol relative to medium of Comparative Example 4, Average: culture 2 days, 0.1% ethanol, 0.1 µM noradrenaline, ethyl caproate 0/0.1/1/10 ppm in Comparative Example 5/Examples 6/7/8
Method: In the present test, the lipolysis-promoting effect of the promoter of the present embodiment was tested by quantifying glycerol released into culture supernatant through decomposition of fat accumulated in adipocytes. Mouse embryonic 3T3-L1 cells, which are progenitor cells of adipocytes and were used in the present test, were induced to differentiate to form adipocytes. The present test was carried out in accordance with a method described in "Effects of Quercetin Glucosides on Dietinduced Obesity in Mice - The Lipolytic Activity of Quercetin -" (Tateishi et al., Japanese Pharmacology & Therapeutics 2009; 37(2): 123-131). The specific testing method of the present test and the results of the test are shown in the following.
In the present test, first, 3T3-L1 cells were suspended in Dulbecco's Modified Eagle medium (manufactured by FUJIFILM Wako Pure Chemical Corporation) (hereinafter, also referred to as "DMEM medium") to which penicillin-streptomycin (manufactured by Thermo Fisher Scientific, Inc.) and fetal bovine serum (manufactured by Sigma-Aldrich Co. LLC) had been added to reach concentrations of 100 Unit/mL, 100 µg/mL, and 10%, respectively, and seeded in a 12-well plate.
The 3T3-L1 cells were cultured under conditions of 5% CO2 and 37°C until the cells became confluent (a state in which cells are totally covering the surface of a culture vessel). Two days after becoming confluent, the medium was exchanged with a medium obtained by adding dexamethasone (manufactured by NACALAI TESQUE, INC.), 3-isobutyl-1-methylxanthine (manufactured by NACALAI TESQUE, INC.), and insulin (manufactured by NACALAI TESQUE, INC.) to DMEM medium to reach concentrations of 0.25 µM, 0.5 mM, and 10 µg/mL, respectively. Thereafter, the 3T3-L1 cells were cultured at 5% CO2 and 37°C for 2 days to induce the cells to differentiate into adipocytes.
After the induction of differentiation, medium exchange with a medium obtained by adding insulin to DMEM medium to reach a concentration of 5 µg/mL was performed every 2 or 3 days, and differentiation was maintained by culturing at 5% CO2 and 37°C for 12 days in total. Thereafter, a medium is prepared as a test medium by adding penicillin-streptomycin (manufactured by Thermo Fisher Scientific, Inc.) and fetal bovine serum (manufactured by Sigma-Aldrich Co. LLC) to DMEM medium free of phenol red (1.0 g/L glucose) (manufactured by NACALAI TESQUE, INC.) to reach concentrations of 100 Unit/mL, 100 µg/mL, and 10%, respectively, and components shown in Table 4 were added to the test medium to reach concentrations shown in Table 4. The medium for the 3T3-L1 cells after induction of differentiation was exchanged with a medium to which components of any of Comparative Examples 4, 5 or Examples 6 to 8 had been added, and the 3T3-L1 cells were cultured at 5% CO2 and 37°C for 2 days.
Ethyl caproate manufactured by Tokyo Chemical Industry Co., Ltd. was used for the ethyl caproate, ethanol manufactured by FUJIFILM Wako Pure Chemical Corporation was used for the ethanol, and noradrenaline manufactured by NACALAI TESQUE, INC. was used for the noradrenaline.
After culturing for 2 days, the culture supernatant was collected, and glycerol released into the culture supernatant was quantified with a Glycerol Assay kit (Cell-Based) (manufactured by Abcam). The ratio of the amount of glycerol in each medium to which the components of any of Comparative Example 5 and Examples 6 to 8 had been added relative to the amount of glycerol in the medium to which the component of Comparative Example 4 had been added (hereinafter, referred to as "control ratio") was determined to obtain the average ± standard error.
In the present test, statistical test was carried out by multiple comparison test with one-way analysis of variance (one-way ANOVA) followed by Dunnett's test. Significance levels of p < 0.05 were each determined to be a significant difference. These analyses were all performed with SPSS version 23 (manufactured by SPSS).

T1 sequence (O75762 whole entry): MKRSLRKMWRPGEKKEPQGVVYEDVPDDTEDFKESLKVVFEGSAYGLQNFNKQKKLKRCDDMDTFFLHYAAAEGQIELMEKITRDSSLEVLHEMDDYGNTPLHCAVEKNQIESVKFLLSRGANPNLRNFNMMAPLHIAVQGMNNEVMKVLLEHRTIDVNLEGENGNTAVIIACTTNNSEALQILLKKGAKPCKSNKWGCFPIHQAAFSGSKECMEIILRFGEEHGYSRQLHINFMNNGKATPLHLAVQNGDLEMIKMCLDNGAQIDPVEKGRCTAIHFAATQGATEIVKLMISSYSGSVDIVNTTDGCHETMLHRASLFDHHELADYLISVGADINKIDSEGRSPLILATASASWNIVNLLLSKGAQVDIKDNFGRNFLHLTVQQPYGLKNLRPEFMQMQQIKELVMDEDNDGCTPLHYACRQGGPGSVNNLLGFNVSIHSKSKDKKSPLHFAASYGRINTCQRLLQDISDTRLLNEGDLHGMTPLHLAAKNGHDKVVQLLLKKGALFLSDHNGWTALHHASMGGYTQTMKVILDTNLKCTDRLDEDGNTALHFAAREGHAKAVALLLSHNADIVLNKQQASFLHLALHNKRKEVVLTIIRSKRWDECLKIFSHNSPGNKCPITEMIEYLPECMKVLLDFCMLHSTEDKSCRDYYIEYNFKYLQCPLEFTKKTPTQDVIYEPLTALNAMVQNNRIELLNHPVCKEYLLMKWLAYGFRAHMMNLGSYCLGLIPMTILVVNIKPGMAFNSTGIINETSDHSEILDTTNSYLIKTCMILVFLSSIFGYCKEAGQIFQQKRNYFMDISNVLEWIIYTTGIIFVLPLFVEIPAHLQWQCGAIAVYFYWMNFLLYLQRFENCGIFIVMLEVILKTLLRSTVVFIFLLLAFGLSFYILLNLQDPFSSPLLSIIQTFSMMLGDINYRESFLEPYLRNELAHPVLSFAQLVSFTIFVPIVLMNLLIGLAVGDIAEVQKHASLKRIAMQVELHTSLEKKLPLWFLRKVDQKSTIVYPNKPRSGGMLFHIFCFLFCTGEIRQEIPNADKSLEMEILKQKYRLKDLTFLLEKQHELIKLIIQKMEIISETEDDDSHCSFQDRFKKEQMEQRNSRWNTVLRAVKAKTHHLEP

Row | cellular response after co-addition of the TRPA1 inhibitor HC03001 (TRPA1; cells with forced expression of TRPA1, Figure 11) | cellular response of cells with forced expression of TRPA1 (TRPA1; ethyl caproate 100 ppm in well, Figures 9 and 10) | Compound | maximum value of ΔRFU after addition of test solution, Average [1] | amount of released glycerol, comparison with control (3T3-L1 cells) | control ratio: amount of glycerol relative to medium of Comparative Example 4, Average (3T3-L1 cells)
1 | disappeared | evoked cellular response | CCCCCC(=O)OCC [Example 9, Ethyl caproate] | 0.046 | – | –
2 | – | – | CCCCCC(=O)OCC [Example 7, Ethyl caproate] | – | increasing tendency in the amount of released glycerol | 1.089
3 | – | – | NC[C@H](O)c1ccc(O)c(O)c1 [Comparative Example 5, Noradrenaline, reference compound] | – | almost no difference in the amount of released glycerol | 1.002
4 | – | – | CCCCCC(=O)OCC [Example 8, Ethyl caproate] | – | significant increase in the amount of released glycerol | 1.118
5 | – | – | CCCCCC(=O)OCC [Example 6, Ethyl caproate] | – | – | 1.063
